Results as given in US20060216363A1, “Novel herbal composition” (priority 2005, published 2006).

How the values were obtained:
[1] = Free radical scavenger, SOD mimetic activity (xanthine/xanthine oxidase/NBT); assay type: biochemical; conditions: reference agents; read-out: Concentration at 50 % Inhibition
Experimental: Conversion of xanthine to uric acid+O^−+NBT to formazan was then determined by measurement of absorbance at 595 nm and percent inhibition by superoxide dismutase or test compound was calculated.

TIMP = TIMP activities of chondrocyte culture supernatants by reverse zymography; assay type: cell-based, human; conditions: non-sheared
Experimental: Confluent cells were treated with various herbal combinations in F12/DMEM containing 5% FCS, 6.25 ug/ml bovine insulin, 25 ug/ml ascorbic acid and 100 nM Dexamethasone for 2 weeks with medium changed twice a week. At the end of each treatment, cells were washed with PBS and incubated in DMEM overnight. Cells were then exposed to fluid-induced shear stress by a custom-made cone viscometer at the rate of 100 rpm for 2 hours. The shear stress induced at this speed was 0.82 Pa (8.2 dyn/cm^2). […] Another set of cells was treated similarly without shearing as the control.
Equal amount of protein of each culture medium was mixed with equal volume of 2× non-reducing SDS sample buffer, and incubated at room temperature for two hours for sample to denature. The samples were loaded into each well of a 10% SDS polyacrylamide gel containing 1 mg/ml of bovine gelatin (Sigma) and 1 ml serum free 24 hour's culture supernatant of human foreskin dermal fibroblast which expressed MMP, and run at 20 mA in ice bath by a BioRad Mini Protean gel apparatus. After dye front reached the bottom of the gel, the gel was washed three times, 15 minutes each, with 2.5% Triton X-100. Then, the gel was renatured in developing buffer (50 mM Tris-HCl, pH7.6, 10 mM CaCl2, 50 mM NaCl, 0.05% Brij35) at 37° C. for 48 hours. […]

chondrocytes [2] = test: Micromass culture of chondrocytes, staining for ALP, collagen and GAGs; assay type: cell-based, human; conditions: 1 mM, two weeks
Experimental: Cells were grown for two weeks before measuring. […] Row A, B: alkaline phosphatase (ALP) stained by Naphthol AS-MX phosphate/Fast red; row C, D: collagen stained by Sirius red; row E, F: glycosaminoglycan stained by Safranin O.
(§1) Human articular cartilage was obtained from patients who received total joint replacement with consent. The cartilage was digested with 1 mg/ml of Class 2 and Class 4 bacterial collagenase (Worthington Chemical, Freehold, N.J.) in DMEM containing 10% fetal calf serum (FCS) and 25 ug/ml Gentamicin (Gibco, Grand Island, N.Y.) (C-DMEM) at 37° C. overnight. The primary cells were plated at high density in 10 mm culture dish (Nunc, Roskilde, Danmark) in C-DMEM and cultured under humidified atmosphere containing 5% CO2 at 37° C.
(§2) Ten ul of 1×10^7 cells in C-DMEM was seeded into the center of each well of 48 multiwell culture dish (Nunc, Roskilde, Danmark). Two hours later, 250 ul of F12/DMEM containing 5% FCS, 6.25 ug/ml bovine insulin, 25 ug/ml ascorbic acid and 100 nM Dexamethasone (induction medium) with various concentrations of herbal combinations or glucosamine (Sigma) was added. The media were changed twice a week for two weeks. At the end of the incubation, the media were changed with fresh DMEM. Twenty-four hours later, the media were collected for MMP zymography study and cells were fixed and stained for alkaline phosphatase (ALP), collagen or glycosaminoglycan using Naphthol AS-MX phosphate/Fast red, Sirius red, or Safranin O (Sigma), respectively.

MMP-2 = MMP-2 activities of chondrocyte culture supernatants by zymography; assay type: cell-based, human
Experimental: Confluent cells were treated with various herbal combinations in F12/DMEM containing 5% FCS, 6.25 ug/ml bovine insulin, 25 ug/ml ascorbic acid and 100 nM Dexamethasone for 2 weeks with medium changed twice a week. At the end of each treatment, cells were washed with PBS and incubated in DMEM overnight. Cells were then exposed to fluid-induced shear stress by a custom-made cone viscometer at the rate of 100 rpm for 2 hours. The shear stress induced at this speed was 0.82 Pa (8.2 dyn/cm^2). Aliquots of culture medium were collected at designated time for nitric oxide measurement and MMP zymography analysis. Another set of cells was treated similarly without shearing as the control.
Equal amount of protein of each culture medium was mixed with equal volume of 2× non-reducing SDS sample buffer, and incubated at room temperature for two hours for sample to denature. The samples were loaded into each well of a 10% SDS polyacrylamide gel containing 1 mg/ml of bovine gelatin (Sigma), and run at 20 mA in ice bath by a BioRad Mini Protean gel apparatus. After dye front reached the bottom of the gel, the gel was washed three times, 15 minutes each, with 2.5% Triton X-100. Then, the gel was renatured in developing buffer (50 mM Tris-HCl, pH7.6, 10 mM CaCl2, 50 mM NaCl, 0.05% Brij35) at 37° C. for 48 hours. […]

chondrocytes [3] = test: Nitric oxide determination (Griess) after fluid induced shear stress; assay type: cell-based, human; conditions: for NO Concentration: pretreated two weeks, 0.01 mg/ml or glucosamine 1 mM
[4] = system: bone marrow mesenchymal stem cells; test: Micromass culture of bone marrow mesenchymal stem cells, staining for ALP, collagen and GAGs; assay type: cell-based, human; conditions: 1 mM
Experimental: Herbal preparations were treated to cells grown in the induction medium in micromass culture for two weeks.
Human bone marrow mesenchymal stem cells were obtained from patients receiving total joint replacement with consent. The cells were cultured in DMEM containing 10% fetal calf serum (FCS), and 25 ug/ml Gentamicin (Gibco, Grand Island, N.Y.) (C-DMEM) at 37° C. under humidified atmosphere containing 5% CO2.
as §2

chondrocytes [5] = test: Micromass culture of chondrocytes, herbal preparations in combination with glucosamine; assay type: cell-based, human
Experimental: Expression was measured on micromass culture after cells grown for two weeks. Induction medium alone (left); with 0.1 mM glucosamine (middle); with 1 mM glucosamine (right). […] All the preparations were at 0.01 mg/ml. Row A, B: alkaline phosphatase (ALP) stained by Naphthol AS-MX phosphate/Fast red; row C, D: collagen stained by Sirius red; row E, F: glycosaminoglycans stained by Safranin O.
as §1, §2

chondrocytes [6] = test: Gene expressions (RT-PCR) of shear-stressed vs. non-shear-stressed chondrocytes; assay type: cell-based, human; conditions: for Col I expression: glucosamine 1 mM
Experimental: Confluent cells were treated with various herbal combinations in F12/DMEM containing 5% FCS, 6.25 ug/ml bovine insulin, 25 ug/ml ascorbic acid and 100 nM Dexamethasone for 2 weeks with medium changed twice a week. At the end of each treatment, cells were washed with PBS and incubated in DMEM overnight. Cells were then exposed to fluid-induced shear stress by a custom-made cone viscometer at the rate of 100 rpm for 2 hours. The shear stress induced at this speed was 0.82 Pa (8.2 dyn/cm^2). […] Another set of cells was treated similarly without shearing as the control. The cells were washed with PBS, and RNA was extracted by Tri-Reagent (Sigma).
The RNA of cells was extracted with Tri-Reagent (Sigma). 800 ng of total RNA was reverse transcribed by Omniscript reverse transcriptase (Qiagen, Valencia, Calif.) in buffer containing 1 uM random primer, 0.5 mM each of dNTP, and 10 units of ribonuclease inhibitor. Reverse transcription was carried out at 37° C. for one hour by a programmable thermal controller (PTC-100, MJ Research, Inc., Watertown, Mass.). Reaction was terminated by raising the temperature to 93° C. for five minutes.
PCR was performed in a thermal controller (PTC-100, MJ Research, Inc., Watertown, Mass.) with master mix (HotStarTaq DNA polymerase, Qiagen) at initial denaturation at 95° C. for 15 minutes, followed by 25 cycles of 94° C. for 1 minute, 58° C. for 40 seconds, and 72° C. for 40 seconds. The final cycle extended 72° C. for 10 minutes. The PCR products accompanied by 100 bp ET marker were separated by 1.2% agarose gel, stained with ethidium bromide and visualized under UV light. A Polaroid picture was taken by Foto/Phoresis UV documentation system (Fotodyne Inc.). Beta-actin expression under the same experimental conditions was used as a reference to normalize the expressions.

chondrocyte = conditions: Okazaki M, Osteoarthritis Cartilage 2003; cited from earlier work
[7] = molecular target: T1, MMP-13 proenzyme (human recombinant) (Homo sapiens, UniProt P45452); test: MMP-13 enzymatic assay; assay type: biochemical; conditions: reference agents; read-out: Concentration at 50 % Inhibition
T1 construct: purchased Calbiochem 444248; host or cells: Sf9 cell
Experimental: MMP-13 proenzyme (human recombinant, expressed in Sf9 cell, Calbiochem Cat. 444248) was activated by p-aminophenylmercuric acetate for 60 minutes at 37° C. […] Enzyme activity was determined spectrofluorometrically by measuring the formation of fluorescent (7-methoxycoumarin-4-yl)acetyl-Pro-Leu-Gly.

[8] = molecular target: T2, MMP-8 (collagenase-2, stimulated human neutrophils) (Homo sapiens, UniProt P22894); test: MMP-8 enzymatic assay; assay type: biochemical; conditions: reference agents; read-out: Concentration at 50 % Inhibition
T2 construct: purchased Calbiochem 444229; host or cells: natural protein from stimulated human neutrophils
T2 sequence (P22894 101-467): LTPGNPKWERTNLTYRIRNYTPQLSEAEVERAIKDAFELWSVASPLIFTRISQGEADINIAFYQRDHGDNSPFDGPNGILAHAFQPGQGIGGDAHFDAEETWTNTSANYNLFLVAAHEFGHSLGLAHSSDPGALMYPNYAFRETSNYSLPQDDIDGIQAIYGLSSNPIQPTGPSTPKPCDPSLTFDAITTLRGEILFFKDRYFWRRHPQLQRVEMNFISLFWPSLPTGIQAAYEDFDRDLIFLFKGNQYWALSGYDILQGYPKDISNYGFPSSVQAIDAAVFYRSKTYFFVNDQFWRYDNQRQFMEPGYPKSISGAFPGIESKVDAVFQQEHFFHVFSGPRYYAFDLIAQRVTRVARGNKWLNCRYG
Experimental: MMP-8 (collagenase-2, stimulated human neutrophils, Calbiochem Cat. 444229) was activated by p-aminophenylmercuric acetate for 60 minutes at 37° C. […] Enzyme activity was determined spectrofluorometrically by measuring the formation of fluorescent (7-methoxycoumarin-4-yl) acetyl-Pro-Leu-Gly.

[9] = molecular target: T3, MMP-3 (stromelysin-1, human recombinant catalytic domain) (Homo sapiens, UniProt P08254); test: MMP-3 enzymatic assay; assay type: biochemical; conditions: reference agents; read-out: Concentration at 50 % Inhibition
T3 construct: MMP-3 (stromelysin-1, human recombinant catalytic domain from Calbiochem Cat. 444217); purchased Calbiochem 444217
T3 sequence (P08254 100-272 limits assumed): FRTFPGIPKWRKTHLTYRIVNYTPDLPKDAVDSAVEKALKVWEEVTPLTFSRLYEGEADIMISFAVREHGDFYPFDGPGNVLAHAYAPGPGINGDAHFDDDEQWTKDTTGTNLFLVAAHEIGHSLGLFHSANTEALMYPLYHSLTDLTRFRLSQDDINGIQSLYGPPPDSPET
Experimental: MMP-3 (stromelysin-1, human recombinant catalytic domain from Calbiochem Cat. 444217) was activated by p-aminophenylmercuric acetate for 60 minutes at 37° C. […] Enzyme activity was determined spectrofluorometrically by measuring the formation of fluorescent (7-methoxycoumarin-4-yl)acetyl-Pro-Leu-Gly.

O=C(O[C@@H]1Cc2c(O)cc(O)cc2O[C@@H]1c1ccc(O)c(O)c1)c1cc(O)c(O)c(O)c1 [(−)-Epicatechin gallate]
IC50 [1]: 6100 nM

N[C@H]1C(O)O[C@H](CO)[C@@H](O)[C@@H]1O (some centres unmarked) [glucosamine]
TIMP (41 K band, >118 K band) (TIMP): decrease of TIMP | ALP (chondrocytes [2]; Naphthol AS-MX phosphate/Fast red): did not show effects | GAGs (chondrocytes [2]; Safranin O): did not show effects | Collagen (chondrocytes [2]; Sirius red): did not show effects | active and latent forms of MMP-2 (68 K, 72 K bands) (MMP-2; non-sheared): showed same profiles as controls | active and latent forms of MMP-2 (68 K, 72 K bands) (MMP-2; sheared): showed same profiles as controls | NO Concentration (chondrocytes [3]; Non-sheared, 0 h): 0.40 µM | NO Concentration (chondrocytes [3]; Non-sheared, 2 h): 0.00 µM | NO Concentration (chondrocytes [3]; Non-sheared, 4 h): 0.00 µM | NO Concentration (chondrocytes [3]; Non-sheared, 7 h): 0.00 µM | NO Concentration (chondrocytes [3]; Non-sheared, 24 h): 0.00 µM | NO Concentration (chondrocytes [3]; Non-sheared, (2 h)): 0.17 µM | NO Concentration (chondrocytes [3]; Sheared, 0 h): 4.58 µM | NO Concentration (chondrocytes [3]; Sheared, 2 h): 4.75 µM | NO Concentration (chondrocytes [3]; Sheared, 4 h): 4.58 µM | NO Concentration (chondrocytes [3]; Sheared, 7 h): 4.42 µM | NO Concentration (chondrocytes [3]; Sheared, 24 h): 4.72 µM | NO Concentration (chondrocytes [3]; Sheared, (2 h)): 0.85 µM | inhibition of NO production (chondrocytes [3]; fluid induced shear stress 100 rpm (0.82 Pa), two hours): 55% | ALP [4]: did not show significant effects | GAGs synthesis [4]: did not show significant effects | collagen synthesis [4]: did not show significant effects | baseline GAG synthesis (chondrocytes [5]; 0.1 mM glucosamine): slightly increased | baseline collagen synthesis (chondrocytes [5]; 0.1 mM glucosamine): slightly increased | effect of glucosamine on the activity of herbal preparations (chondrocytes [5]; glucosamine 0.1 or 1 mM, preparations 0.01 mg/ml): did not affect the activity of herbal preparations | aggrecanase expression (chondrocytes [6]; non-shear-stressed): inhibited aggrecanase expression | expression of aggrecan (chondrocytes [6]; non-shear-stressed): inhibited the expression of aggrecan significantly | BMP-2 expression (chondrocytes [6]; non-sheared): inhibited its expression completely | Col I expression (chondrocytes [6]; non-sheared): inhibited Col I expression significantly | BMP-2 expression (chondrocytes [6]; shear-stressed): showed less activity | aggrecanase expression (chondrocytes [6]; shear-stressed): slight increase in aggrecanase expression | expression of aggrecan (chondrocytes [6]; shear-stressed): slightly increased aggrecan expression | MMP-2 expression (chondrocytes [6]; shear-stressed and non-shear-stressed): not to be affected | Col I expression (chondrocytes [6]; sheared): no effect

CCOC(CN1C(=O)[C@](CC(=O)Nc2ccc(C)cc2)(NC(=O)Nc2ccc(C)cc2)c2ccccc21)OCC [AG-041R]
ALP activity (chondrocyte): suppressed ALP activity | expression of type II collagen, aggrecan and BMP-2 genes (chondrocyte): up-regulated | proteoglycan synthesis (chondrocyte): accelerated proteoglycan synthesis

TIMP-1: tissue inhibitor of matrix metalloproteinase, comparison agent in the MMP assays
IC50 [7]: 6.8 nM | IC50 [8]: 3.9 nM | IC50 [9]: 7.6 nM
